Several values for one entry are separate records, joined by “and”; a condition that tells them apart may be missing. Equal entries are not always repeated.
Columns and labels:
Erysiphe graminis = assay: Test on preventive effect against wheat powdery mildew; type: in vivo, Erysiphe graminis on wheat (cultivar: Norin-61); parameters: key: control value = (1 − a/b)×100; a, b = sporulation area treated/untreated; conditions: single compound alone
Experimental: Wheat (cultivar: Norin-61) was cultivated in a plastic pot having a diameter of 7.5 cm, and when it reached 1.5-leaf stage, a chemical solution having each test compound adjusted to a prescribed concentration, was applied by a spray gun in an amount of 5 ml/seedling. After the chemical solution dried, conidia of Erysiphe graminis were dusted and inoculated and maintained in a constant temperature chamber at 20° C. From 6 to 8 days after the inoculation, the area of sporulation was investigated, and the control value was determined in accordance with the following formula, and the results are shown in Tables 1 to 7. The area of sporulation in the non-treated plot was determined in the same manner as for the treated plot except that water was applied by a spray gun instead of the chemical solution.
(§1) Control value=(1−a/b)×100
a: area of sporulation in the treated plot
b: area of sporulation in the non-treated plot
Based on the obtained control value, an expected value (control value) was calculated by the Colby's formula. The expected values by the Colby's formula are also shown in brackets ( ) in Tables 1 to 7.
When the experimental value is higher than the expected value, the fungicidal composition of the present invention has a synergistic effect against wheat powdery mildew.

Botrytis cinerea = assay: Test on preventive effect against kidney bean gray mold; type: in vivo, Botrytis cinerea on kidney bean (cultivar: Taishokintoki); conditions: single compound alone
Experimental: Kidney bean (cultivar: Taishokintoki) was cultivated in a plastic pot having a diameter of 12 cm, and when it reached 3 to 4-leaf stage, a chemical solution having each test compound adjusted to a prescribed concentration, was applied by a spray gun in an amount of 10 ml/seedling. After the chemical solution dried, a suspension of conidia of Botrytis cinerea was blotted on a paper disk having a diameter of 8 mm for implantation inoculation and maintained in a constant temperature chamber at 20° C. Upon expiration of 3 days from the inoculation, the lesion area was investigated, and the control value was determined in accordance with the following formula, and the results are shown in Table 8. The lesion area in the non-treated plot was determined in the same manner as for the treated plot except that water was applied by a spray gun instead of the chemical solution.
as §1
a: lesion area in the treated plot
b: lesion area in the non-treated plot
Based on the obtained control value, an expected value (control value) was calculated by the Colby's formula. The expected values by the Colby's formula are also shown in brackets ( ) in Table 8.
When the experimental value is higher than the expected value, the fungicidal composition of the present invention has a synergistic effect against kidney bean gray mold.

CCCCCCCCc1c(CC)nc2ncnn2c1N [ametoctradin] was tested, and the Control value (Erysiphe graminis; 200 ppm) was 0 and the Control value (Erysiphe graminis; 400 ppm) was 15.

With Cn1cc(C(=O)Nc2ccc(F)cc2-c2ccc(Cl)c(Cl)c2)c(C(F)F)n1 [bixafen] the Control value (Erysiphe graminis; 250 ppm) was 0 and the Control value (Erysiphe graminis; 500 ppm) was 50.

In the case of COc1cc(C)c(C(=O)c2c(OC)ncc(Cl)c2C)c(OC)c1OC [component (a), 3-(2,3,4-trimethoxy-6-methylbenzoyl)-5-chloro-2-methoxy-4-methylpyridine], the Control value (Erysiphe graminis; 0.25 ppm) is reported as 30, the Control value (Erysiphe graminis; 0.5 ppm, spray, area of sporulation 6 to 8 days after inoculation) is reported as 50 and 40 and the Control value (Botrytis cinerea; 200 ppm) is reported as 0. The Control value (Botrytis cinerea; 400 ppm, spray, lesion area 3 days after inoculation) was 0.

With C=CCSC(=O)n1c(N)c(-c2ccccc2C)c(=O)n1C(C)C [fenpyrazamine] the Control value (Erysiphe graminis; 63 ppm) was 0 and the Control value (Erysiphe graminis; 250 ppm) was 0.

O=C(NCCc1ncc(C(F)(F)F)cc1Cl)c1ccccc1C(F)(F)F [fluopyram] showed a Control value (Erysiphe graminis; 16 ppm) of 40 and a Control value (Erysiphe graminis; 31 ppm) of 70.

Cn1cc(C(=O)Nc2ccccc2-c2cc(F)c(F)c(F)c2)c(C(F)F)n1 [fluxapyroxad] was tested, and the Control value (Erysiphe graminis; 6.3 ppm) was 30 and the Control value (Erysiphe graminis; 50 ppm) was 50.

With CC(C)C1C2CCC1c1c(NC(=O)c3cn(C)nc3C(F)F)cccc12 (centres unmarked) [isopyrazam] the Control value (Erysiphe graminis; 16 ppm) was 50 and the Control value (Erysiphe graminis; 31 ppm) was 90.

Cc1nn(C)c(F)c1C(=O)Nc1ccccc1C(C)CC(C)C (centres unmarked) [penflufen] showed a Control value (Botrytis cinerea; 50 ppm) of 40 and a Control value (Botrytis cinerea; 100 ppm) of 50.

With Cn1cc(C(=O)Nc2ccccc2C2CC2C2CC2)c(C(F)F)n1 (centres unmarked) [sedaxane] the Control value (Erysiphe graminis; 6.3 ppm) was 0 and the Control value (Erysiphe graminis; 12.5 ppm) was 30.
